Source: patent US12398411B2, “Method for producing selenoneine” (KIKKOMAN CORPORATION, priority 2018, dated 2025)

Assays:
[1] = tested on: Aspergillus sojae NBRC4239 strain; assay: Toxicity of selenium compounds: cell proliferation with alamarBlue Cell Viability Reagent; format: cell-based; conditions: conidia of Aspergillus sojae NBRC4239; 0-2 mM final concentration; 30° C. for 30 hours
Description: The cytotoxicity of sodium selenite was tested as follows. To quantify cell proliferation, alamarBlue Cell Viability Reagent (Thermo Fisher Scientific) was used.
The mixture composed of 2× DPY liquid medium (2 (w/v) % polypeptone, 4 (w/v) % dextrin, 1 (w/v) % yeast extract, 1 (w/v) % KH2PO4, 0.1 (w/v) % MgSO4·7H2O; pH not adjusted), 2× alamarBlue and 2×10^4 cells/ml the conidia of Aspergillus sojae NBRC4239 strain was dispensed in the volume of 100 μl into each well of a microplate. Similarly, 100 μl of an aqueous sodium selenite solution was added to each well so that the final concentration was 0 mM, 0.125 mM, 0.25 mM, 0.5 mM, 1 mM and 2 mM. The blank without the addition of the conidia and sodium selenite solution was used as a blank.
After incubating the microplate at 30° C. for 30 hours, absorbance at 570 nm was measured. A plot of the value calculated by subtracting absorbance at 600 nm of the blank from the measurement result according to the instruction manual of alamarBlue reagent is shown in FIG. 4.

[2] = known to have; no test by the applicant; cited from earlier work

Structure (SMILES)	degree of mycelial growth observed visually [1]	growth inhibition (cytotoxicity, absorbance at 570 nm, FIG. 4) [1]	antioxidant activity relative to its thio analog, ergothioneine [2]
O=[Se](O)O [sodium selenite]	No difference	no growth inhibition	
C[N+](C)(C)[C@@H](Cc1cnc([Se-])[nH]1)C(=O)O [selenoneine]			1,000 times
